Test results taken from the NIST ThermoML archive (doi:10.1016/j.jct.2017.05.006).

Assay: osmotic coefficient (dimensionless); mn = molality of the nth substance listed, in mol/kg
Details: 298.15 K, Liquid, isopiestic method

O=[N+]([O-])[O-].O=[N+]([O-])[O-].[Mg+2] [magnesium nitrate] + O
Details | osmotic coefficient
m1 = 0.7578 | 1.015
m1 = 0.855 | 1.032
m1 = 0.9755 | 1.071
m1 = 1.067 | 1.103
m1 = 1.126 | 1.115
m1 = 1.15 | 1.122
m1 = 1.187 | 1.13
m1 = 1.191 | 1.135
m1 = 1.234 | 1.143
m1 = 1.309 | 1.172
m1 = 1.395 | 1.196

O=S(=O)([O-])[O-].[Mg+2] [magnesium sulfate] + O
Details | osmotic coefficient
m1 = 1.562 | 0.586
m1 = 1.585 | 0.593
m1 = 1.607 | 0.595
m1 = 1.643 | 0.601
m1 = 1.7 | 0.609
m1 = 1.742 | 0.617
m1 = 1.803 | 0.625
m1 = 1.884 | 0.641
m1 = 2.007 | 0.665
m1 = 2.132 | 0.692
m1 = 2.243 | 0.714
m1 = 2.385 | 0.746
